Experimental data as given in article PMC5267425, “Identification of small molecule modulators of HIV-1 Tat and Rev protein accumulation” (Retrovirology, 2017).

Test system: cellular gene expression in HeLa rtTA HIV∆Mls cells

How did the “SETMAR expression fold change” value turn out when `Cc1cc(NCc2cccnc2)n2ncc(-c3ccc(Cl)cc3)c2n1` [Compound 791, 3-(4-chlorophenyl)-5-methyl-N-(3-pyridinylmethyl)pyrazolo[1,5-a]pyrimidin-7-amine] was run?
Its value is 0.745.

What about the “SFPQ expression fold change” value of the same compound?
Its value is 0.604.

What about the “SFRS13A expression fold change” value of the same compound?
The value was 1.164.

What about the “SH2D4A expression fold change” value of the same compound?
Its value is 1.164.

What about the “SH3BGR Mean fold change” value of the same compound?
The value was 1.680.

And the “SHPK expression fold change” value?
The value was 0.869.

And the “SIAH1 Mean fold change” value?
The value was 1.613.

What about the “SIAH2 Mean fold change” value of the same compound?
The value was 1.494.

What about the “SIKE1 expression fold change” value of the same compound?
Its value is 1.279.

And the “SKA2 expression fold change” value?
Its value is 0.700.

What about the “SLC1A5 Mean fold change” value of the same compound?
Its value is 2.013.

What about the “SLC6A9 Mean fold change” value of the same compound?
Its value is 1.846.

What about the “SLC6A15 Mean fold change” value of the same compound?
The value was 1.859.

And the “SLC9A3 Mean fold change” value?
The value was 1.796.

And the “SLC10A3 expression fold change” value?
Its value is 0.873.

What about the “SLC16A1 expression fold change” value of the same compound?
Its value is 1.148.

And the “SLC22A15 Mean fold change” value?
The value was 2.322.

What about the “SLC25A23 expression fold change” value of the same compound?
The value was 0.855.

What about the “SLC26A11 expression fold change” value of the same compound?
Its value is 1.295.

And the “SLC29A1 expression fold change” value?
The value was 0.814.

And the “SLC35B3 expression fold change” value?
Its value is 1.282.

What about the “SLC38A6 expression fold change” value of the same compound?
Its value is 1.215.

What about the “SLC39A6 expression fold change” value of the same compound?
Its value is 1.389.

And the “SMARCA1 expression fold change” value?
The value was 0.805.

And the “SMARCA5 expression fold change” value?
The value was 0.811.

What about the “SMARCC1 expression fold change” value of the same compound?
The value was 0.845.

What about the “SMC2 expression fold change” value of the same compound?
The value was 0.736.

What about the “SMC4 expression fold change” value of the same compound?
Its value is 0.769.

And the “SMEK2 expression fold change” value?
The value was 1.332.

And the “SMS expression fold change” value?
The value was 0.802.

What about the “SMTN expression fold change” value of the same compound?
The value was 0.528.

And the “SNAPC5 Mean fold change” value?
Its value is 1.498.

And the “SNX7 expression fold change” value?
The value was 0.747.

What about the “SNX10 Mean fold change” value of the same compound?
Its value is 2.399.

What about the “SOD1 expression fold change” value of the same compound?
The value was 0.780.

And the “SOX12 expression fold change” value?
Its value is 0.979.

And the “SPCS1 expression fold change” value?
The value was 1.045.

What about the “SPR expression fold change” value of the same compound?
The value was 0.726.

And the “SPRED2 Mean fold change” value?
The value was 2.080.

What about the “SPRYD4 expression fold change” value of the same compound?
The value was 0.835.

And the “SPTAN1 expression fold change” value?
The value was 0.613.

What about the “SQSTM1 expression fold change” value of the same compound?
Its value is 1.336.

And the “SRPK1 expression fold change” value?
Its value is 1.142.

What about the “SS18L1 expression fold change” value of the same compound?
Its value is 1.184.

And the “SSR4 expression fold change” value?
Its value is 1.121.

What about the “ST5 expression fold change” value of the same compound?
The value was 0.715.

What about the “ST6GALNAC4 expression fold change” value of the same compound?
Its value is 1.270.

And the “ST7L expression fold change” value?
Its value is 1.363.

What about the “STAG3L4 Mean fold change” value of the same compound?
Its value is 1.432.

What about the “STAMBP expression fold change” value of the same compound?
Its value is 1.360.

And the “STARD4 expression fold change” value?
Its value is 0.603.

And the “STK24 expression fold change” value?
Its value is 1.344.

What about the “STK36 expression fold change” value of the same compound?
Its value is 1.268.

And the “STK38 expression fold change” value?
The value was 0.829.

What about the “STK40 expression fold change” value of the same compound?
Its value is 1.375.

And the “STMN1 expression fold change” value?
The value was 0.737.

What about the “STX4 expression fold change” value of the same compound?
Its value is 1.358.

What about the “SUN1 expression fold change” value of the same compound?
The value was 0.880.

What about the “SUPT3H expression fold change” value of the same compound?
Its value is 1.089.

What about the “SUPT16H expression fold change” value of the same compound?
Its value is 1.113.

What about the “SWAP70 expression fold change” value of the same compound?
Its value is 0.801.

And the “SYNPO expression fold change” value?
Its value is 0.615.

What about the “TAB1 expression fold change” value of the same compound?
The value was 1.071.

What about the “TADA2B expression fold change” value of the same compound?
The value was 1.205.

What about the “TAF1C expression fold change” value of the same compound?
Its value is 1.085.

And the “TAF3 expression fold change” value?
The value was 1.132.

And the “TAF4B expression fold change” value?
The value was 0.875.

What about the “TAGLN2 expression fold change” value of the same compound?
Its value is 0.573.

And the “TATDN1 Mean fold change” value?
The value was 1.544.

And the “TBC1D23 expression fold change” value?
Its value is 0.831.

And the “TBC1D25 expression fold change” value?
The value was 0.892.

What about the “TBCCD1 expression fold change” value of the same compound?
The value was 1.231.

What about the “TBCD expression fold change” value of the same compound?
Its value is 0.769.

What about the “TBL1X expression fold change” value of the same compound?
Its value is 1.190.

And the “TBX1 expression fold change” value?
The value was 0.707.

And the “TCEA1 Mean fold change” value?
The value was 2.377.

And the “TCTA expression fold change” value?
Its value is 0.691.

And the “TEX2 expression fold change” value?
The value was 1.153.

And the “TEX261 expression fold change” value?
Its value is 0.826.

And the “TFAP2A expression fold change” value?
Its value is 0.742.

What about the “TGDS expression fold change” value of the same compound?
The value was 1.239.

And the “TGFA Mean fold change” value?
Its value is 2.015.

And the “THAP2 Mean fold change” value?
The value was 1.505.

What about the “TIGD2 expression fold change” value of the same compound?
Its value is 1.326.

What about the “TIGD6 Mean fold change” value of the same compound?
Its value is 1.617.

What about the “TIMELESS expression fold change” value of the same compound?
The value was 1.079.

What about the “TIMM17B expression fold change” value of the same compound?
Its value is 1.193.

And the “TIMP4 Mean fold change” value?
Its value is 2.098.

What about the “TIPRL expression fold change” value of the same compound?
The value was 1.158.

And the “TLE3 expression fold change” value?
Its value is 0.824.

What about the “TM4SF1 expression fold change” value of the same compound?
The value was 0.658.

What about the “TM4SF19 Mean fold change” value of the same compound?
The value was 2.453.

And the “TM9SF4 expression fold change” value?
Its value is 1.144.

What about the “TMED9 expression fold change” value of the same compound?
Its value is 0.713.

What about the “TMEM33 expression fold change” value of the same compound?
Its value is 1.367.

And the “TMEM51 expression fold change” value?
The value was 1.103.

And the “TMEM55A Mean fold change” value?
Its value is 1.593.

What about the “TMEM68 expression fold change” value of the same compound?
The value was 1.389.

What about the “TMEM69 expression fold change” value of the same compound?
The value was 0.879.

What about the “TMEM120B expression fold change” value of the same compound?
Its value is 1.358.

What about the “TMEM126B expression fold change” value of the same compound?
The value was 1.318.

And the “TMEM128 Mean fold change” value?
The value was 1.475.

And the “TMEM133 expression fold change” value?
Its value is 0.678.

What about the “TMEM134 expression fold change” value of the same compound?
Its value is 1.333.

What about the “TMEM136 Mean fold change” value of the same compound?
The value was 1.653.

And the “TMEM138 expression fold change” value?
Its value is 1.174.

And the “TMEM167B expression fold change” value?
Its value is 1.381.

What about the “TMEM184B expression fold change” value of the same compound?
Its value is 0.777.

And the “TMSB10 expression fold change” value?
Its value is 0.763.

What about the “TNKS2 expression fold change” value of the same compound?
The value was 1.115.

And the “TNS3 expression fold change” value?
The value was 0.625.

What about the “TOM1 expression fold change” value of the same compound?
Its value is 1.142.

What about the “TOP1 Mean fold change” value of the same compound?
Its value is 1.433.

What about the “TOP2B expression fold change” value of the same compound?
The value was 0.838.

What about the “TOR3A Mean fold change” value of the same compound?
Its value is 2.169.

And the “TPD52 expression fold change” value?
The value was 0.814.

What about the “TPK1 Mean fold change” value of the same compound?
The value was 1.463.

What about the “TRAPPC6B Mean fold change” value of the same compound?
Its value is 1.516.

And the “TRIB3 Mean fold change” value?
The value was 9.286.

And the “TRIM5 expression fold change” value?
Its value is 0.541.

What about the “TRIM8 expression fold change” value of the same compound?
Its value is 1.137.

And the “TRIM11 expression fold change” value?
The value was 1.129.

And the “TRIM38 expression fold change” value?
Its value is 1.268.

What about the “TRIP12 expression fold change” value of the same compound?
Its value is 0.897.

And the “TRIP13 expression fold change” value?
Its value is 0.826.

And the “TRMT2A expression fold change” value?
The value was 1.232.
